Assay results as given in paper PMC9696068 (2022).

Test system: AT11 on 2[G4]-(N3)127/(AT11)34/(Cy5)1 (aptadendrimer) (DNA, G4) TGGTGGTGGTTGTTGTGGTGGTGGTGGT
Assay: steady-state and time-resolved fluorescence, fluorescence anisotropy
Settings: K+ 65 mM KCl plus potassium phosphate; 20 mM phosphate pH 6.9, room temperature; 0.5 µM C8, aptadendrimer titrated; dendrimer core may contribute

CN(C)c1ccc2cc3ccc(N(C)C)cc3[n+](CCCCCCCCNC(=O)c3ccc(I)cc3)c2c1 was tested. Which binding did it give?
The binding was “yes”.
